Measured values as given in PMC4046051, “Two M-T hook residues greatly improve the antiviral activity and resistance profile of the HIV-1 fusion inhibitor SC29EK” (Retrovirology, 2014).
Peptide text beside a SMILES is read from it.

Assays:
HIV-1 NL4-3 I37T/N43K = experiment: Inhibition of T20-resistant HIV-1 variants: I37T/N43K; type: cell-based; details: for IC50: mean ± SD of three independent experiments
Protocol: (§1) The inhibition of peptides on the HIV-1 entry was determined by single-cycle infection assay as described previously. Briefly, HIV-1 pseudovirus was generated by cotransfecting 293 T cells with an Env-expressing plasmid and a backbone plasmid pSG3^Δenv that encodes Env-defective, luciferase-expressing HIV-1 genome. The supernatants were harvested and filtered 48 h after transfection and 50% tissue culture infectious dose (TCID50) was determined in TZM-bl cells. The peptides were prepared with 3-fold dilutions and mixed with 100 TCID50 viruses and then incubated 1 h at room temperature. The mixture was added to TZM-bl cells (10^4/well) and incubated 48 h at 37°C. The luciferase activity was measured using luciferase assay reagents and a Luminescence Counter (Promega).

[1] = target: T1, NHR peptide N36 (HIV-1 gp41) (Human immunodeficiency virus type 1 group M subtype B, UniProt P04578); experiment: CD thermal denaturation of 6-HB formed by CHR peptide and N36; type: binding; details: CHR peptide + N36, each 10 μM in PBS pH 7.2; CD at 222 nm, 20-98°C
T1 construct: made in house; host or cells: chemical synthesis (solid-phase FMOC), no expression host
Protocol: (§2) CD spectroscopy was performed according to our protocols described previously. […] The final concentration of each peptide was 10 μM in PBS buffer (pH 7.2). The CD spectra were acquired on a Jasco spectropolarimeter (model J-815) using a 1 nm bandwidth with a 1 nm step resolution from 195 to 260 nm at room temperature. The spectra were corrected by subtraction of a blank corresponding to the solvent. Data were averaged over three accumulations. The α-helical content was calculated from the CD signal by dividing the mean residue ellipticity [θ] at 222 nm by the value expected for 100% helix formation (-33,000 degrees.cm^2.dmol^-1). The thermal denaturation experiment was performed by monitoring the change in ellipticity [θ] at 222 nm at the increasing temperature (20–98°C) using temperature controller. The temperature was increased at a rate of 1.2°C per min; data were acquired at a 1 nm bandwidth at 222 nm at a frequency of 0.25 Hz. The melting curve was smoothened, and the midpoint of the thermal unfolding transition (Tm) values were taken as the maximum of the derivative d [θ]222/dT. The Tm value was detected at a peptide concentration of 10 μM in PBS buffer.

HIV-1 NL4-3 V38A/N42T = experiment: Inhibition of T20-resistant HIV-1 variants: V38A/N42T; type: cell-based; details: for IC50: mean ± SD of three independent experiments, SD
Protocol: as §1

[2] = target: T2, six-helical bundle (6-HB) of N36 and biotinylated-C34 (Human immunodeficiency virus type 1 group M subtype B, UniProt P04578); experiment: Inhibition of 6-HB formation, NC-1 capture ELISA; type: biochemical, HIV-1; details: for IC50: biotinylated-C34 0.1 μM, N36 0.1 μM, 30 min room temperature, 3 independent experiments
T2 construct: made in house; host or cells: chemical synthesis (solid-phase FMOC), no expression host
Protocol: The 6-HB core-specific monoclonal antibody NC-1 was obtained from Dr. Shibo Jiang in the New York Blood Center (New York, NY) through the ARRRP, Division of AIDS, NIAID, National Institute of Health. The inhibitory activity of SC29EK or MT-SC29EK on the 6-HB formation was measured by a modified ELISA as previously described. Briefly, a 96-well polystyrene plate was coated with 2 μg/ml NC-1 in 0.1 M Tris buffer (pH 8.8). A tested peptide at graded concentrations was mixed with the biotinylated-C34 (0.1 μM) and incubated with N36 (0.1 μM) at room temperature for 30 min. The mixture was then added to the NC-1-coated plate, followed by incubation for 30 min and washing with a washing buffer (PBS containing 0.1% Tween 20) three times. Then horseradish peroxidase (HRP)-labeled streptavidin (Invitrogen) and the substrate 3,3,5,5- tetramethylbenzidine (Sigma) were sequentially added. Absorbance at 450 nm (A450) was measured using an ELISA reader.

HIV-1 NL4-3 Q40H = experiment: Inhibition of T20-resistant HIV-1 variants: Q40H; type: cell-based; details: for IC50: mean ± SD of three independent experiments, SD
Protocol: as §1

HIV-1 NL4-3 V38A = experiment: Inhibition of T20-resistant HIV-1 variants: V38A; type: cell-based; details: for IC50: mean ± SD of three independent experiments, SD
Protocol: as §1

wild-type HIV-1NL4-3 = type: cell-based; details: for IC50: wild-type HIV-1NL4-3, 100 TCID50, TZM-bl cells, two days, luciferase, mean ± SD of three independent experiments, SD, read-out: IC50 Replication
Protocol: The inhibition of peptides on HIV-1 replication was determined by a molecular cloned wild-type HIV-1NL4–3. In brief, the virus stock was harvested and quantified 48 h post-transfection. 100 TCID50 viruses were used to infect TZM-bl cells in the presence or absence of serially diluted peptides. Two days post-infection, the cells were harvested and lysed in reporter lysis buffer and the luciferase activity was measured as described above.

HIV-1 NL4-3 I37T = experiment: Inhibition of T20-resistant HIV-1 variants: I37T; type: cell-based; details: for IC50: mean ± SD of three independent experiments, SD
Protocol: as §1

HIV-1NL4-3 pseudovirus = type: cell-based; details: for IC50: 100 TCID50, TZM-bl cells, 48 h, luciferase, mean ± SD of three independent experiments, SD, read-out: IC50 Entry
Protocol: as §1

HIV-1 NL4-3 WT = experiment: Inhibition of T20-resistant HIV-1 variants panel: WT; type: cell-based; details: for IC50: mean ± SD of three independent experiments, SD
Protocol: as §1

HIV-1 NL4-3 V38M = experiment: Inhibition of T20-resistant HIV-1 variants: V38M; type: cell-based; details: for IC50: mean ± SD of three independent experiments, SD
Protocol: as §1

HIV-1 NL4-3 N43K = experiment: Inhibition of T20-resistant HIV-1 variants: N43K; type: cell-based; details: for IC50: mean ± SD of three independent experiments
Protocol: as §1

[3] = target: T1, NHR peptide N36 (HIV-1 gp41); experiment: Isothermal titration calorimetry (ITC) with N36; type: binding; details: 25°C; for Kd: 1 mM N36 injected into 100 μM peptide, read-out: binding constant (K) (converted)
Protocol: ITC assay was performed using an ITC200 Microcalorimeter instrument (MicroCal, USA) as described previously. In brief, 1 mM N36 dissolved in ddH20 was injected into the chamber containing 100 μM SC29EK or MT-SC29EK. The experiments were carried out at 25°C. The time between injections was 240 s and the stirring speed was 500 rpm. The heats of dilution were determined in control experiments by injecting N36 into ddH20 and subtracted from the heats produced in the corresponding peptide-peptide binding experiments. Data acquisition and analysis were performed using MicroCal Origin software (version 7.0).

HIV-1 NL4-3 D36S/V38M = experiment: Inhibition of T20-resistant HIV-1 variants: D36S/V38M; type: cell-based; details: for IC50: mean ± SD of three independent experiments, SD
Protocol: as §1

N36 mutant I37T/N43K = target: T3, N36 mutant I37T/N43K (Human immunodeficiency virus type 1 group M subtype B, UniProt P04578, I548T/N554K); experiment: CD thermal denaturation of 6-HB formed with N36 mutant I37T/N43K; type: binding, HIV-1; details: CHR peptide + N36 I37T/N43K mutant, each 10 μM in PBS
T3 construct: A panel of N36-based peptides carrying a single (I37T, V38A, Q40H, N43K) or double (I37T/N43K and V38A/N42T) NHR mutations; made in house; host or cells: chemical synthesis (solid-phase FMOC), no expression host
Protocol: as §2

[4] = system: molecular clone of HIV-1NL4-3; experiment: In vitro selection of HIV-1 resistance in MT-4 cells; type: cell-based; details: 1.5-2 fold escalating concentrations, after 35 generations of passage over 7 months
Protocol: The in vitro selection of HIV-1 resistance to peptide inhibitors was performed as described previously. Briefly, MT-4 cells were seeded at 1 × 10^4 in RPMI 1640 medium containing 10% fetal bovine serum on 12-well plates. The molecular clone of HIV-1NL4–3 was used to infect the cells in the presence or absence of diluted peptide inhibitors (SC29EK, MT-SC29EK, SC22EK and MT-SC22EK). The cells were incubated at 37°C with 5% CO2 until an extensive cytopathic effect was observed. The culture supernatants were harvested and used for next passage on fresh MT-4 cells with 1.5-2 fold increasing concentrations of peptide. Cells and supernatant were harvested at regular time points and stored at -80°C.

N36 mutant V38A = experiment: CD thermal denaturation of 6-HB formed with N36 mutant V38A; type: binding, HIV-1; details: CHR peptide + N36 V38A mutant, each 10 μM in PBS
Protocol: as §2

SMILES	n-fold relative to the IC50 of the wild-type (WT) virus (HIV-1 NL4-3 I37T/N43K)	Tm (midpoint of the thermal unfolding transition) of 6-HB [1]	n-fold relative to the IC50 of the wild-type (WT) virus (HIV-1 NL4-3 V38A/N42T)	IC50 (HIV-1 NL4-3 V38A/N42T)	IC50 [2]	n-fold relative to the IC50 of the wild-type (WT) virus (HIV-1 NL4-3 Q40H)	IC50 (HIV-1 NL4-3 Q40H)	n-fold relative to the IC50 of the wild-type (WT) virus (HIV-1 NL4-3 V38A)	IC50 (HIV-1 NL4-3 V38A)	IC50 (wild-type HIV-1NL4-3)	n-fold relative to the IC50 of the wild-type (WT) virus (HIV-1 NL4-3 I37T)	IC50 (HIV-1 NL4-3 I37T)	IC50 (HIV-1NL4-3 pseudovirus)	n-fold relative to the IC50 of the wild-type (WT) virus (HIV-1 NL4-3 WT)	IC50 (HIV-1 NL4-3 WT)	n-fold relative to the IC50 of the wild-type (WT) virus (HIV-1 NL4-3 V38M)	IC50 (HIV-1 NL4-3 V38M)	n-fold relative to the IC50 of the wild-type (WT) virus (HIV-1 NL4-3 N43K)	Kd [3]	n-fold relative to the IC50 of the wild-type (WT) virus (HIV-1 NL4-3 D36S/V38M)	other results
CC[C@H](C)[C@H](NC(=O)[C@H](CC(C)C)NC(=O)[C@H](CCC(=O)O)NC(=O)[C@H](CCC(=O)O)NC(=O)[C@@H](NC(=O)[C@H](CCCCN)NC(=O)[C@H](CCCCN)NC(=O)[C@@H](NC(=O)[C@H](Cc1ccc(O)cc1)NC(=O)[C@H](CCC(=O)O)NC(=O)[C@H](CCC(=O)O)NC(=O)[C@@H](NC(=O)[C@H](CCCCN)NC(=O)[C@H](CCCCN)NC(=O)[C@H](CC(=O)O)NC(=O)[C@H](Cc1c[nH]c2ccccc12)NC(=O)[C@H](CCC(=O)O)NC(=O)[C@H](CCC(=O)O)NC(=O)[C@H](Cc1c[nH]c2ccccc12)NC(=O)[C@@H](NC(=O)[C@H](CCSC)NC(C)=O)[C@@H](C)O)[C@@H](C)CC)[C@@H](C)O)[C@@H](C)CC)C(=O)N[C@@H](CCCCN)C(=O)N[C@@H](CCCCN)C(=O)N[C@@H](CO)C(=O)N[C@@H](CCC(=O)O)C(=O)N[C@@H](CCC(=O)O)C(=O)N[C@@H](CCC(N)=O)C(=O)N[C@@H](CCC(N)=O)C(=O)N[C@@H](CCCCN)C(=O)N[C@@H](CCCCN)C(=O)N[C@@H](CC(N)=O)C(N)=O [MT-SC29EK] (Ac-MTWEEWDKKIEEYTKKIEELIKKSEEQQKKN-NH2)	35.3	79.1 °C	1	0.6 nM	600 nM	1.3	0.8 ± 0.1 nM	1	0.6 ± 0.1 nM	0.2 nM	1.3	0.8 ± 0.2 nM	0.7 nM	1	0.6 ± 0.1 nM	2.8	1.7 nM	12	15.5 nM	2	IC50 (HIV-1 NL4-3 I37T/N43K; SD): 21.2 ± 4.4 nM; fold increase of 6-HB blocking potency over SC29EK [2]: 23 fold; fold increase of potency over SC29EK, replication (wild-type HIV-1NL4-3; wild-type HIV-1NL4-3): 4.5 fold; fold increased potency over SC29EK, entry (HIV-1NL4-3 pseudovirus): 3.1 fold; IC50 (HIV-1 NL4-3 N43K; SD): 7.2 ± 0.2 nM; fold increase of K value compared to SC29EK [3]: 4.7 fold; IC50 (HIV-1 NL4-3 D36S/V38M): 1.2 nM
CC[C@H](C)[C@H](NC(=O)[C@H](CC(C)C)NC(=O)[C@H](CCC(=O)O)NC(=O)[C@H](CCC(=O)O)NC(=O)[C@@H](NC(=O)[C@H](CCCCN)NC(=O)[C@H](CCCCN)NC(=O)[C@@H](NC(=O)[C@H](Cc1ccc(O)cc1)NC(=O)[C@H](CCC(=O)O)NC(=O)[C@H](CCC(=O)O)NC(=O)[C@@H](NC(=O)[C@H](CCCCN)NC(=O)[C@H](CCCCN)NC(=O)[C@H](CC(=O)O)NC(=O)[C@H](Cc1c[nH]c2ccccc12)NC(=O)[C@H](CCC(=O)O)NC(=O)[C@H](CCC(=O)O)NC(=O)[C@H](Cc1c[nH]c2ccccc12)NC(C)=O)[C@@H](C)CC)[C@@H](C)O)[C@@H](C)CC)C(=O)N[C@@H](CCCCN)C(=O)N[C@@H](CCCCN)C(=O)N[C@@H](CO)C(=O)N[C@@H](CCC(=O)O)C(=O)N[C@@H](CCC(=O)O)C(=O)N[C@@H](CCC(N)=O)C(=O)N[C@@H](CCC(N)=O)C(=O)N[C@@H](CCCCN)C(=O)N[C@@H](CCCCN)C(=O)N[C@@H](CC(N)=O)C(N)=O [SC29EK] (Ac-WEEWDKKIEEYTKKIEELIKKSEEQQKKN-NH2)	>138.9	69.1 °C	20.9	37.7 ± 6.4 nM	14000 nM	46.6	83.8 ± 10.8 nM	9	16.2 ± 1.9 nM	0.9 ± 0.2 nM	8.3	15 ± 0.3 nM	2.2 ± 0.3 nM	1	1.8 ± 0.2 nM	8.4	15.1 ± 1.8 nM	>138.9	71.9 nM	6.5	IC50 (HIV-1 NL4-3 I37T/N43K): > 250 nM; Tm of 6-HB (N36 mutant I37T/N43K): 61.1 °C; peptide concentration reached during in vitro selection of resistant virus [4]: 2,650 nM; IC50 (HIV-1 NL4-3 N43K): > 250 nM; IC50 (HIV-1 NL4-3 D36S/V38M): 11.7 ± 0.7 nM; Tm of 6-HB (N36 mutant V38A): 62.1 °C
